# In patent US20250051350A1, “Dihydroartemisinin derivatives and the treatment of fibrotic diseases” (GreenStone Biosciences, Inc., priority 2023, published 2025):
# Tests used:
# in vitro = in vitro ADME; settings: for fraction unbound: plasma
# Procedure: Plasma protein binding assays were conducted in triplicate for compounds PT-2, PT-14, PT-28, and PT-30, with artesunate, DHA, and warfarin as comparators.
# [1] = Intravenous and oral pharmacokinetics in mice; type: in vivo; settings: male C57BL/6J mice; for IV AUC0-last / IV Clearance / IV T1/2 / IV VD,ss / PO AUC0-last / PO T1/2: plasma
# Procedure: The intravenous (IV) and oral (PO) pharmacokinetics of the PT compounds were measured in 6-10 week-old male C57BL/6J mice, using three mice/group. The test compounds were formulated in an appropriate water-based vehicle to give a clear solution for IV administration, or a clear solution or uniform suspension for PO administration. Animals were dosed within 4 hours of the preparation of the formulations; with the dose volume being determined by the animal's body weight measured on the morning of the dosing day. Blood samples (about 25 μL per time point) were taken at 5 and 15 minutes and 1, 3, and 5 hours after dosing, into pre-chilled EDTA-K2 tubes and kept on wet ice until centrifugation. The tubes were centrifuged at 3200×g at about 4° C. for 10 minutes, and the plasma analyzed by LC-MS/MS.
# [2] = system: MD2 signaling pathway (HEK Blue-TLR4 cells); experiment: HEK Blue-TLR4 assay (MD2 pathway); type: cell-based; settings: 1 h preincubation, 10 ng/mL lipopolysaccharide, read after 20 hours at 655 nm
# Procedure: HEK Blue-TLR4 cells were plated in detection media, preincubated with vehicle or PT-2, PT-14, or PT-30 dissolved in vehicle (with artesunate, DHA, and artemisinin comparators) for 1 h, then co-stimulated with 10 ng/mL lipopolysaccharide. Reporter activity was read after 20 hours at 655 nm in a spectrophotometer. The PT compounds were active in this assay, showing that they inhibit the MD2 signaling pathway.
# [3] = system: Induced pluripotent stem cell-derived cardiac fibroblasts (ACTA2-GFP); experiment: Antifibrotic effects in TGF-β-activated iPSC-derived cardiac fibroblasts (ACTA2-GFP fluorescence); type: cell-based; settings: for IC50: activated with TGF-β, simultaneous treatment, 48 hours, ACTA2-GFP fluorescence, read-out: IC50, reduction in fluorescence
# Excerpt: Induced pluripotent stem cell-derived cardiac fibroblasts were constructed containing a fusion of the alpha-smooth muscle actin to the green fluorescent protein (ACTA2-GFP) construct. ACTA2 is a myofibroblast marker, such that the fibroblasts fluoresce with an intensity dependent on the extent of fibrosis.
recovery (in vitro; human) [%],fraction unbound (in vitro; human),recovery (in vitro; mouse) [%],fraction unbound (in vitro; mouse),Structure (SMILES),IV AUC0-last [1] [ng·h/mL],IV Clearance [1] [mL/min/kg],IV T1/2 [1] [min],"IV VD,ss [1] [L/kg]",PO Bioavailability [1] [%],PO AUC0-last [1] [ng·h/mL],PO T1/2 [1] [min],activity in HEK Blue-TLR4 reporter assay (inhibition of MD2 signaling pathway) [2],IC50 [3] [nM],antifibrotic efficacy in this model ([3]; TGF-β-activated iPSC-derived cardiac fibroblasts)
91.1,0.003,94.5,0.007,CC(=O)CC(c1ccccc1)c1c(O)c2ccccc2oc1=O (stereo not shown) [warfarin],,,,,,,,,,
,,,,"CC1CCC2C(C)C(OC(=O)N3CC(C)(N)C3)OC3OC4(C)CCC1C32OO4 (stereo not shown) [PT-24, DHA 3-amino-3-methylazetidine-1-carboxylate]",2200,77,15.6,2.2,123,24300,67.2,,,
,,,,"CC1CCC2C(C)C(OC(=O)N3CC(C)(C(N)=O)C3)OC3OC4(C)CCC1C32OO4 (stereo not shown) [PT-27, DHA 3-methyl-3-carbamoylazetidine-1-carboxylate]",3300,47,15,1.0,41,14400,78,,,
,,,,"CC1CCC2C(C)C(OC(=O)N3CC(C)(O)C3)OC3OC4(C)CCC1C32OO4 (stereo not shown) [PT-14, DHA 3-hydroxy-3-methylazetidine-1-carboxylate]",2200,75,10.8,1.1,92,20500,39.6,active,570,
,,,,"CC1CCC2C(C)C(OC(=O)N3CC(C)(C(=O)N(C)C)C3)OC3OC4(C)CCC1C32OO4 (stereo not shown) [PT-29, DHA 3-methyl-3-(dimethylcarbamoyl)azetidine-1-carboxylate]",2000,82,7.8,0.9,34,6800,64.8,,,
,,,,"CNC(=O)C1(C)CN(C(=O)O[C@H]2O[C@@H]3O[C@@]4(C)CC[C@H]5[C@H](C)CC[C@@H]([C@H]2C)[C@@]35OO4)C1 [PT-28, DHA 3-methyl-3-(methylcarbamoyl)azetidine-1-carboxylate]",4200,38,14.4,0.8,112,48800,28.8,,,demonstrated antifibrotic efficacy
,,,,"CC1CCC2C(C)C(OC(=O)CC(C)(C)O)OC3OC4(C)CCC1C32OO4 (stereo not shown) [PT-4, DHA 3-hydroxy-3-methylbutanoate]",600,280,6.6,2.0,11,500,10.8,,5600,
,,,,"CC1CCC2C(C)C(OC(=O)N3CC(O)C3)OC3OC4(C)CCC1C32OO4 (stereo not shown) [PT-13, DHA 3-hydroxyazetidine-1-carboxylate]",2200,76,7.2,0.9,64,14100,41.4,,2600,
